These results are taken from patent US20040122044A1, “Utilization of substituted imidazo [1,2-A]-pyridin-3-yl-amide and imidazo [1,2-A]-pyridin-3-yl-amine compounds in pharmaceutical formulations” (priority 2001, published 2004).

In this assay the target is T1, NO synthase (Rattus norvegicus, UniProt P29476).
T1 construct: the tissue was broken down with a Polytron homogenizer for 1 min at 6,000 rpm; from tissue; host or cells: rat cerebellum, 20,000 g supernatant of homogenate
The assay is described as follows: HTS NO synthase assay. Conditions: enzyme preparation from rat cerebelli, [3H]arginine substrate. Type of assay: biochemical. As to the method:
This assay allows the determination of the percentage inhibition of NO synthase by a compound of formula I according to the invention by measurement of the NO synthase activity in the presence of the compound. In this procedure, NO synthase is mixed together with radioactively labelled arginine and the particular compound of formula I under suitable conditions. After interruption of the NO formation reaction at a given point in time, the amount of unreacted arginine is determined directly or indirectly. […]
In this HTS NO synthase assay, radioactive arginine is used as the substrate. […] With the aid of this procedure, the arginine substrate which remains is bonded to the cation exchanger, while the radioactive citrulline formed enzymatically is washed out quantitatively. After drying of the filter MTP and addition of scintillation liquid, the bound arginine can be counted on a scintillation counter. An NO synthase reaction which has not been inhibited is reflected in a low radioactivity. […] That is to say a high radioactivity is found on the filter. […]
The plate was then dried for 1 hour at 60° C. in a drying cabinet. […] After a waiting time of 1 hour, the plate was measured on a β-counter.

SMILES strings stand for the structures.

As for `Cc1ccn2c(N)c(-c3ccsc3)nc2c1` [Example 1, 7-Methyl-2-thiophen-3-yl-imidazo[1,2-a]pyridin-3-ylamine], the inhibition (as a rule, the drop in the measured response relative to a control, in per cent) at 10 µM is 89%.
